In US20220233624A9, “ANTI-CANCER AND ANTI-PROLIFERATIVE COMPOSITIONS, AND METHODS FOR THEIR USE IN TREATING CANCER” (Natreon, Inc., priority 2020, published 2022):
“And” between values parts separate entries of the source, which are not always exact repeats. Equal entries are not always repeated. Where two headings read alike, the source gives them in different places.

Assays:
[1] = system: Breast Cancer PDCs, ER/PR+ Her2 equivocal (HR+); assay: Anti-proliferation assay on breast cancer HR+ PDCs; assay type: cell-based, human; details: drug alone @ 10 uM; for inhibition at 10 µM: Homo sapiens
Protocol: (§1) The outermost rows/columns of the plates were filled with PBS (pH 7.4) to avoid an edge-effect and were considered as blanks. Standardized aqueous extracts identified in Table 2 were prepared in main stock solutions by dissolving 1 mg of extract in 1 ml PBS (phosphate-buffered saline, pH 7.4). […] The plate was incubated in a CO2 incubator for 0/N incubation for 24 hours. […] Once extracts were added to incubated cells and mixed gently, the plate was given a brief spin and incubated in the CO2 incubator for 72 hours. The plate was removed from the incubator and 10 ul of detection reagent (CellTiterGlo®; Promega Corporation, Wisconsin, USA) added to each well of the 384 well plate. […] The assay described above is a two-dimensional (2D) assay.

[2] = system: Breast Cancer PDCs, Triple negative (TN), SB 36344; assay: Anti-proliferation assay on breast cancer TN PDCs; assay type: cell-based, human; details: drug alone @ 10 uM; for inhibition at 10 µM: Homo sapiens
Protocol: as §1

[3] = system: CLL (Chronic lymphocytic leukemia) PDCs; assay: Anti-proliferation assay on CLL PDCs; assay type: cell-based, human; details: for inhibition at 10 µM: Homo sapiens
Protocol: as §1

[4] = system: colon cancer cells (cell line HT-29); assay: Anti-proliferation assay on colon cancer cells; assay type: cell-based; details: Homo sapiens
Protocol: Anti-proliferative and anti-cancer activity of extracts of this invention on non-small cell lung cancer cells and colon cancer cells were assessed generally as described in Example I and are discussed below. […] As noted throughout this application, the below data is intended to describe the present invention but not to be limiting.
Non-small cell lung cancer cells (cell line NCI-H-358) and colon cancer cells (cell line HT-29) were plated in a 384-well plate in amounts of about 1.25 k cells/well. […] Wells with untreated cells and with plain media were also included as controls. Plates passed quality control parameters.

[5] = system: TN breast cancer PDCs SB 30750; assay: Anti-proliferation assay on TN breast cancer PDCs SB 30750; assay type: cell-based; details: Homo sapiens
Protocol: In this Example, AyuFlex®, Capros®, and Ayuric® were each applied to different PDCs than previous tests, TN breast cancer PDCs SB 30750, and tested via the anti-proliferation assay described above. […] Incubation times were 72 hours.

[6] = system: Ovarian cancer (OVCAR-3) cells; assay: Anti-proliferation assay on ovarian cancer cells; assay type: cell-based; details: Homo sapiens
Protocol: Cells were plated at 1.25 k/well in 384 well plates. […] Anti-proliferative assays were generally performed as discussed in Example I above, in triplicate, with detection reagent CellTiterGlo. Tables 80-82 show data for controls for assays on prostate cancer (PC-3 cells), and that the data passed quality control parameters. Tables 83-85 show data for controls for assays on ovarian cancer (OVCAR-3 cells), and that the data passed quality control parameters.

[7] = system: Pancreatic cancer (Panc-1) cells; assay: Anti-proliferation assay on pancreatic cancer cells; assay type: cell-based; details: Homo sapiens
Protocol: Cells were plated at 1.25 k/well in 384 well plates. […] Anti-proliferative assays were generally performed as described in Example I above, in triplicate, with detection reagent CellTiterGlo. Tables 98-99 show data for controls for assays on histiocytic lymphoma (U-937) cells, and that the data passed quality control parameters. Tables 101-102 show data for controls for assays on pancreatic cancer (Panc-1) cells, and that the data passed quality control parameters. […] The assay is generally as described in Example I.

[8] = read-out: % Inhibition, single replicates
[9] = 10 uM, 72 h, read-out: % Inhibition n1
[10] = 10 uM, 72 h, read-out: % Inhibition n2
[11] = 10 uM, 72 h, read-out: % Inhibition n3
[12] = 10 uM, 72 h, read-out: % Inhibition Average (SD)
[13] = drug 10 uM, read-out: inhibition

COc1cccc2c1C(=O)c1c(O)c3c(c(O)c1C2=O)C[C@@](O)(C(=O)CO)C[C@@H]3O[C@H]1C[C@H](N)[C@H](O)[C@H](C)O1 [Doxorubicin, doxorubicin]
inhibition at 10 µM ([1]; read-out: % Inhibition Avg): 78% | inhibition at 10 µM [1, 8]: 75% | % Inhibition Avg ([1]; 10 µM): 77% | % Inhibition, single replicates ([1]; 10 µM): 81% | inhibition at 10 µM ([2]; read-out: % Inhibition Avg): 73% | inhibition at 10 µM [2, 8]: 73% | % Inhibition Avg ([2]; 10 µM): 93% | % Inhibition, single replicates ([2]; 10 µM): 72% and 91% and 92% | inhibition at 10 µM ([3]; Doxorubicin @ 10 uM, read-out: % Inhibition Avg): 2% | inhibition at 10 µM ([3]; Doxorubicin @ 10 uM, read-out: % Inhibition n1): 16% | inhibition at 10 µM ([3]; Doxorubicin @ 10 uM, read-out: % Inhibition n2): -9% | inhibition at 10 µM ([3]; Doxorubicin @ 10 uM, read-out: % Inhibition n3): 1% | inhibition at 10 µM ([3]; drug alone @ 10 uM, read-out: % Inhibition Avg): 55% | inhibition at 10 µM ([3]; drug alone @ 10 uM, read-out: % Inhibition, single replicates): 50% | % Inhibition, single replicates ([3]; drug alone @ 10 uM, 10 µM): 61% | anti-cancer activity (in words) ([3]; extracts 100, 30, 10 ug/ml, doxorubicin 10 uM): relatively low inhibitory activity | inhibition at 10 µM ([4]; drug 10 uM, read-out: inhibition of proliferation): 94% | inhibition at 10 µM ([4]; plate control @ 10 uM, read-out: % Inhibition Average (SD)): 94% | inhibition at 10 µM ([4]; plate control @ 10 uM, read-out: % Inhibition n1): 94% | inhibition at 10 µM ([4]; plate control @ 10 uM, read-out: % Inhibition n2): 93% | inhibition at 10 µM ([4]; plate control @ 10 uM, read-out: % Inhibition n3): 94% | inhibition at 10 µM ([5]; 10 uM, 72 h, read-out: % Inhibition Avg): 68% | inhibition at 10 µM [5, 9]: 78% | inhibition at 10 µM [5, 10]: 68% | inhibition at 10 µM [5, 11]: 58% | inhibition at 10 µM ([5]; read-out: % Inhibition Average (SD)): 68% | inhibition at 10 µM ([5]; read-out: % Inhibition n1): 78% | inhibition at 10 µM ([5]; read-out: % Inhibition n2): 68% | inhibition at 10 µM ([5]; read-out: % Inhibition n3): 58% | inhibition at 10 µM [6, 12]: 76% | inhibition at 10 µM [6, 9]: 74% | inhibition at 10 µM [6, 10]: 75% | inhibition at 10 µM [6, 11]: 79% | inhibition at 10 µM [6, 13]: 76% | inhibition at 10 µM [7, 12]: 94% | inhibition at 10 µM [7, 9]: 94% | inhibition at 10 µM [7, 10]: 94% | inhibition at 10 µM [7, 11]: 95% | inhibition at 10 µM [7, 13]: 94%
